Key:
Assay in all cases: relative viability (nuclei count vs DMSO), 5 days (fraction); higher = more cells survive
[1] = compound: CN(C)C[C@@H]1CCn2cc(c3ccccc32)C2=C(C(=O)NC2=O)c2cn(c3ccccc23)CCO1 [Ruboxistaurin] + CC(C)C[C@H](NC(=O)[C@H](Cc1ccccc1)NC(=O)c1cnccn1)B(O)O [Bortezomib] (partner 0.002 µM)
In short: (§1)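 Lung cancer cell lines were seeded in 1536-well plates and dosed by pin tool the next day, with either a single drug or a fixed anchor-drug dose combined with five library-drug doses (not always all listed) spaced in √10 steps. Five days later, one step fixed the cells and stained their nuclei (final 0.05% Triton X-100, 1% formaldehyde, 1 ug/ml Hoechst), and nuclei were counted on 4× images. Relative viability is the nuclei count in treated wells divided by the count in vehicle wells, and each value is the median of duplicate plates.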

[2] = compound: CN(C)C[C@@H]1CCn2cc(c3ccccc32)C2=C(C(=O)NC2=O)c2cn(c3ccccc23)CCO1 [Ruboxistaurin] + CS(=O)(=O)N1CCN(Cc2cc3nc(-c4cccc5[nH]ncc45)nc(N4CCOCC4)c3s2)CC1 [Pictilisib] (partner 1 µM)
In short: as §1

[3] = compound: CN(C)C[C@@H]1CCn2cc(c3ccccc32)C2=C(C(=O)NC2=O)c2cn(c3ccccc23)CCO1 [Ruboxistaurin] + CS(=O)(=O)CCNCc1ccc(-c2ccc3ncnc(Nc4ccc(OCc5cccc(F)c5)c(Cl)c4)c3c2)o1 [Lapatinib] (partner 2 µM)
In short: as §1

[4] = compound: CN(C)C[C@@H]1CCn2cc(c3ccccc32)C2=C(C(=O)NC2=O)c2cn(c3ccccc23)CCO1 [Ruboxistaurin] + CC1(C)CCC(c2ccc(Cl)cc2)=C(CN2CCN(c3ccc(C(=O)NS(=O)(=O)c4ccc(N[C@H](CCN5CCOCC5)CSc5ccccc5)c(S(=O)(=O)C(F)(F)F)c4)cc3)CC2)C1 [Navitoclax] (partner 0.5 µM)
In short: as §1

Ruboxistaurin + OSI-027 = compound: CN(C)C[C@@H]1CCn2cc(c3ccccc32)C2=C(C(=O)NC2=O)c2cn(c3ccccc23)CCO1 [Ruboxistaurin] + COc1cccc2cc(-c3nc([C@H]4CC[C@H](C(=O)O)CC4)n4ncnc(N)c34)[nH]c12 [OSI-027] (partner 0.5 µM)
In short: as §1

Cell Line | relative viability ([1]; first compound 0.08 µM) | relative viability ([1]; first compound 0.8 µM) | relative viability ([1]; first compound 2.53 µM) | relative viability ([1]; first compound 8 µM) | relative viability ([2]; first compound 0.08 µM) | relative viability ([2]; first compound 0.8 µM) | relative viability ([2]; first compound 2.53 µM) | relative viability ([2]; first compound 8 µM) | relative viability ([3]; first compound 0.08 µM) | relative viability ([3]; first compound 0.8 µM) | relative viability ([3]; first compound 2.53 µM) | relative viability ([3]; first compound 8 µM) | relative viability ([4]; first compound 0.08 µM) | relative viability ([4]; first compound 0.8 µM) | relative viability ([4]; first compound 2.53 µM) | relative viability ([4]; first compound 8 µM) | relative viability (Ruboxistaurin + OSI-027; first compound 0.08 µM) | relative viability (Ruboxistaurin + OSI-027; first compound 0.8 µM) | relative viability (Ruboxistaurin + OSI-027; first compound 2.53 µM) | relative viability (Ruboxistaurin + OSI-027; first compound 8 µM)
HCC-827 | 1.01 | 1.01 | 1.06 | 1.14 | 0.993 | 0.866 | 1.08 | 1.27 | 0.243 | 0.191 | 0.184 | 0.165 | 1.05 | 1.05 | 1.01 | 1.04 | 0.889 | 0.82 | 0.772 | 0.605
HCC-78 | 0.711 | 0.427 | 0.618 | 0.397 | 0.198 | 0.245 | 0.195 | 0.174 | 0.745 | 0.717 | 0.774 | 0.944 | 0.802 | 0.686 | 0.812 | 0.793 | 0.346 | 0.335 | 0.316 | 0.3
UMC-11 | 0.725 | 0.667 | 0.691 | 0.564 | 0.892 | 0.596 | 0.728 | 0.509 | 1.03 | 0.844 | 0.875 | 0.644 | 0.312 | 0.28 | 0.294 | 0.248 | 0.437 | 0.403 | 0.37 | 0.301
NCI-H1975 | 0.392 | 0.311 | 0.424 | 0.392 | 0.302 | 0.235 | 0.252 | 0.211 | 0.93 | 0.821 | 0.906 | 0.826 | 1.2 | 1.04 | 1.25 | 0.996 | 0.751 | 0.578 | 0.645 | 0.502
COR-L23 | 1.1 | 0.797 | 0.968 | 1.35 | 0.802 | 0.688 | 0.676 | 0.59 | 1.23 | 0.914 | 1.09 | 1.08 | 1.16 | 1.01 | 1.03 | 0.998 | 0.759 | 0.637 | 0.712 | 0.391
CAL-12T | 1.12 | 0.981 | 1.06 | 1.11 | 0.482 | 0.349 | 0.395 | 0.386 | 0.735 | 0.554 | 0.765 | 0.78 | 1.22 | 1.28 | 1.31 | 1.26 | 0.797 | 0.449 | 0.69 | 0.391
SW 1573 | 0.892 | 0.973 | 0.983 | 1.05 | 0.468 | 0.39 | 0.542 | 0.37 | 1.1 | 1.12 | 1.18 | 1.03 | 0.978 | 0.791 | 1.01 | 0.854 | 0.729 | 0.459 | 0.541 | 0.494
NCI-H2126 | 1.11 | 1.05 | 1.18 | 1.16 | 0.533 | 0.447 | 0.541 | 0.463 | 0.751 | 0.703 | 0.774 | 0.73 | 0.914 | 0.78 | 0.844 | 0.794 | 0.811 | 0.638 | 0.776 | 0.639
